Where a name gives a salt, the structure may show the parent alone.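 Test compounds were applied to cells in 96-well plates for 48 hours at 5 doses. GI50 marks 50% less growth.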 Active and inactive are the calls of the source. Rule as the data show it: active = GI50 up to about 1.1 µM and inactive = higher.
What was measured:
Test in all cases: NCI tumour cell line growth inhibition, 48 h
BT-549 = test system: BT-549
CCRF-CEM = test system: CCRF-CEM
COLO 205 = test system: COLO 205
DU-145 = test system: DU-145
EKVX = test system: EKVX
HCT-116 = test system: HCT-116
Hs-578T = test system: Hs-578T
KM12 = test system: KM12
MDA-MB-435 = test system: MDA-MB-435
MDA-N = test system: MDA-N
NCI-H226 = test system: NCI-H226
NCI-H460 = test system: NCI-H460
NCI-H522 = test system: NCI-H522
OVCAR-3 = test system: OVCAR-3
RXF 393 = test system: RXF 393
SK-MEL-2 = test system: SK-MEL-2
SK-OV-3 = test system: SK-OV-3
SN12C = test system: SN12C
UACC-62 = test system: UACC-62
UO-31 = test system: UO-31

CC(=O)c1cc2c(s1)C(=O)c1ccccc1C2=O
GI50 (BT-549): 1.62 µM (inactive) | GI50 (CCRF-CEM): 1.96 µM (inactive) | GI50 (COLO 205): 4.72 µM (inactive) | GI50 (DU-145): 1.26 µM (inactive) | GI50 (EKVX): 4.39 µM (inactive) | GI50 (HCT-116): 1.68 µM (inactive) | GI50 (Hs-578T): 2.84 µM (inactive) | GI50 (KM12): 2.04 µM (inactive) | GI50 (MDA-MB-435): 0.791 µM (active) | GI50 (MDA-N): 1.63 µM (inactive) | GI50 (NCI-H226): 2.61 µM (inactive) | GI50 (NCI-H460): 1.05 µM (active) | GI50 (NCI-H522): 0.944 µM (active) | GI50 (OVCAR-3): 0.513 µM (active) | GI50 (RXF 393): 8.18 µM (inactive) | GI50 (SK-MEL-2): 4.31 µM (inactive) | GI50 (SK-OV-3): 15.3 µM (inactive) | GI50 (SN12C): 2.59 µM (inactive) | GI50 (UACC-62): 2.51 µM (inactive) | GI50 (UO-31): 1.79 µM (inactive)

NC(=O)NC1NC(=O)NC1=O (stereo not given) [ALLANTOIN]
GI50 (BT-549): > 100 µM (inactive) | GI50 (CCRF-CEM): > 100 µM (inactive) | GI50 (COLO 205): > 100 µM (inactive) | GI50 (DU-145): > 100 µM (inactive) | GI50 (EKVX): > 100 µM (inactive) | GI50 (HCT-116): > 100 µM (inactive) | GI50 (Hs-578T): > 100 µM (inactive) | GI50 (KM12): > 100 µM (inactive) | GI50 (MDA-MB-435): > 100 µM (inactive) | GI50 (MDA-N): > 100 µM (inactive) | GI50 (NCI-H226): > 100 µM (inactive) | GI50 (NCI-H460): > 100 µM (inactive) | GI50 (NCI-H522): > 100 µM (inactive) | GI50 (OVCAR-3): > 100 µM (inactive) | GI50 (RXF 393): > 100 µM (inactive) | GI50 (SK-MEL-2): > 100 µM (inactive) | GI50 (SK-OV-3): > 100 µM (inactive) | GI50 (SN12C): > 100 µM (inactive) | GI50 (UACC-62): > 100 µM (inactive) | GI50 (UO-31): 6 µM (inactive)

CN1CCC(CN2c3ccccc3Sc3ccccc32)C1 (stereo not given) [METHDILAZINE HYDROCHLORIDE]
GI50 (BT-549): 16.8 µM (inactive) | GI50 (CCRF-CEM): 15.2 µM (inactive) | GI50 (COLO 205): 11.5 µM (inactive) | GI50 (DU-145): 17.8 µM (inactive) | GI50 (EKVX): 16.8 µM (inactive) | GI50 (HCT-116): 13.9 µM (inactive) | GI50 (Hs-578T): 15.4 µM (inactive) | GI50 (KM12): 17.9 µM (inactive) | GI50 (MDA-MB-435): 10.1 µM (inactive) | GI50 (MDA-N): 14.1 µM (inactive) | GI50 (NCI-H226): 19.5 µM (inactive) | GI50 (NCI-H460): 13.9 µM (inactive) | GI50 (NCI-H522): 16.7 µM (inactive) | GI50 (OVCAR-3): 14.2 µM (inactive) | GI50 (RXF 393): 3.5 µM (inactive) | GI50 (SK-MEL-2): 15.7 µM (inactive) | GI50 (SK-OV-3): 17.3 µM (inactive) | GI50 (SN12C): 15.3 µM (inactive) | GI50 (UACC-62): 12.8 µM (inactive) | GI50 (UO-31): 14.8 µM (inactive)
